From the supplement of paper PMC10307832

Legend:
Test in all cases: relative viability (nuclei count vs DMSO), 5 days (fraction); higher = more cells survive
[1] = system: 201T
In short: (§1)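 For relative viability, nuclei counts in treated wells were divided by those in vehicle wells. Lung cancer cell lines had been pin-tool dosed in 1536-well plates the day after seeding and cultured for 5 days, then fixed and stained in one step (final 0.05% Triton X-100, 1% formaldehyde, 1 ug/ml Hoechst) and imaged at 4×. Doses were one drug alone or a fixed anchor-drug dose plus five library-drug doses (not always all listed) in √10 steps, and values are duplicate-plate medians.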

[2] = system: A-427
In short: as §1

[3] = system: COR-L23
In short: as §1

[4] = system: H3255
In short: as §1

[5] = system: LCLC-103H
In short: as §1

[6] = system: LCLC-97TM1
In short: as §1

[7] = system: LK-2
In short: as §1

[8] = system: LU99A
In short: as §1

[9] = system: NCI-H1563
In short: as §1

[10] = system: NCI-H1650
In short: as §1

[11] = system: NCI-H1651
In short: as §1

[12] = system: NCI-H1793
In short: as §1

[13] = system: NCI-H1944
In short: as §1

[14] = system: NCI-H2347
In short: as §1

[15] = system: NCI-H23
In short: as §1

[16] = system: NCI-H460
In short: as §1

[17] = system: NCI-H650
In short: as §1

[18] = system: NCI-H727
In short: as §1

[19] = system: NCI-H838
In short: as §1

[20] = system: PC-14
In short: as §1

[21] = system: PC-3 [JPC-3]
In short: as §1

[22] = system: RERF-LC-KJ
In short: as §1

[23] = system: SW 1573
In short: as §1

[24] = system: SW 900
In short: as §1

COc1cc(N2CCC(C(N)=O)CC2)ccc1Nc1nc(N)c(Cl)c(Nc2ccccc2S(=O)(=O)C(C)C)n1 [HG-5-88-01] + COc1cccc2cc(-c3nc([C@H]4CC[C@H](C(=O)O)CC4)n4ncnc(N)c34)[nH]c12 [OSI-027] (partner 0.5 µM)
relative viability ([1]; first compound 0.04 µM): 0.84 | relative viability ([1]; first compound 0.1265 µM): 0.745 | relative viability ([1]; first compound 0.4 µM): 0.428 | relative viability ([1]; first compound 1.265 µM): 0.668 | relative viability ([1]; first compound 4 µM): 0.303 | relative viability ([2]; first compound 0.04 µM): 0.441 | relative viability ([2]; first compound 0.1265 µM): 0.533 | relative viability ([2]; first compound 0.4 µM): 0.524 | relative viability ([2]; first compound 1.265 µM): 0.416 | relative viability ([2]; first compound 4 µM): 0.283 | relative viability ([3]; first compound 0.04 µM): 0.772 | relative viability ([3]; first compound 0.1265 µM): 0.79 | relative viability ([3]; first compound 0.4 µM): 0.646 | relative viability ([3]; first compound 1.265 µM): 0.55 | relative viability ([3]; first compound 4 µM): 0.505 | relative viability ([4]; first compound 0.04 µM): 0.558 | relative viability ([4]; first compound 0.1265 µM): 0.538 | relative viability ([4]; first compound 0.4 µM): 0.643 | relative viability ([4]; first compound 4 µM): 0.432 | relative viability ([5]; first compound 0.04 µM): 0.416 | relative viability ([5]; first compound 0.1265 µM): 0.435 | relative viability ([5]; first compound 0.4 µM): 0.381 | relative viability ([5]; first compound 1.265 µM): 0.362 | relative viability ([5]; first compound 4 µM): 0.405 | relative viability ([6]; first compound 0.04 µM): 0.445 | relative viability ([6]; first compound 0.1265 µM): 0.521 | relative viability ([6]; first compound 0.4 µM): 0.238 | relative viability ([6]; first compound 1.265 µM): 0.305 | relative viability ([6]; first compound 4 µM): 0.131 | relative viability ([7]; first compound 0.04 µM): 0.173 | relative viability ([7]; first compound 0.1265 µM): 0.189 | relative viability ([7]; first compound 0.4 µM): 0.15 | relative viability ([7]; first compound 1.265 µM): 0.173 | relative viability ([7]; first compound 4 µM): 0.175 | relative viability ([8]; first compound 0.04 µM): 0.245 | relative viability ([8]; first compound 0.1265 µM): 0.316 | relative viability ([8]; first compound 0.4 µM): 0.286 | relative viability ([8]; first compound 1.265 µM): 0.279 | relative viability ([8]; first compound 4 µM): 0.263 | relative viability ([9]; first compound 0.04 µM): 0.715 | relative viability ([9]; first compound 0.1265 µM): 0.754 | relative viability ([9]; first compound 0.4 µM): 0.709 | relative viability ([9]; first compound 1.265 µM): 0.638 | relative viability ([9]; first compound 4 µM): 0.573 | relative viability ([10]; first compound 0.04 µM): 0.603 | relative viability ([10]; first compound 0.1265 µM): 0.657 | relative viability ([10]; first compound 0.4 µM): 0.399 | relative viability ([10]; first compound 1.265 µM): 0.32 | relative viability ([10]; first compound 4 µM): 0.265 | relative viability ([11]; first compound 0.04 µM): 0.748 | relative viability ([11]; first compound 0.1265 µM): 0.696 | relative viability ([11]; first compound 0.4 µM): 0.605 | relative viability ([11]; first compound 1.265 µM): 0.627 | relative viability ([11]; first compound 4 µM): 0.58 | relative viability ([12]; first compound 0.1265 µM): 0.269 | relative viability ([12]; first compound 0.4 µM): 0.236 | relative viability ([12]; first compound 4 µM): 0.177 | relative viability ([13]; first compound 0.04 µM): 0.386 | relative viability ([13]; first compound 0.1265 µM): 0.391 | relative viability ([13]; first compound 0.4 µM): 0.422 | relative viability ([13]; first compound 1.265 µM): 0.297 | relative viability ([13]; first compound 4 µM): 0.251 | relative viability ([14]; first compound 0.04 µM): 0.363 | relative viability ([14]; first compound 0.1265 µM): 0.448 | relative viability ([14]; first compound 0.4 µM): 0.388 | relative viability ([14]; first compound 1.265 µM): 0.25 | relative viability ([14]; first compound 4 µM): 0.274 | relative viability ([15]; first compound 0.04 µM): 0.511 | relative viability ([15]; first compound 0.1265 µM): 0.605 | relative viability ([15]; first compound 0.4 µM): 0.615 | relative viability ([15]; first compound 1.265 µM): 0.311 | relative viability ([15]; first compound 4 µM): 0.238 | relative viability ([16]; first compound 0.04 µM): 0.604 | relative viability ([16]; first compound 0.1265 µM): 0.655 | relative viability ([16]; first compound 0.4 µM): 0.543 | relative viability ([16]; first compound 1.265 µM): 0.344 | relative viability ([16]; first compound 4 µM): 0.287 | relative viability ([17]; first compound 0.04 µM): 0.492 | relative viability ([17]; first compound 0.1265 µM): 0.476 | relative viability ([17]; first compound 0.4 µM): 0.431 | relative viability ([17]; first compound 1.265 µM): 0.443 | relative viability ([17]; first compound 4 µM): 0.319 | relative viability ([18]; first compound 0.04 µM): 0.423 | relative viability ([18]; first compound 0.1265 µM): 0.619 | relative viability ([18]; first compound 0.4 µM): 0.493 | relative viability ([18]; first compound 1.265 µM): 0.424 | relative viability ([18]; first compound 4 µM): 0.355 | relative viability ([19]; first compound 0.04 µM): 0.359 | relative viability ([19]; first compound 0.1265 µM): 0.333 | relative viability ([19]; first compound 0.4 µM): 0.238 | relative viability ([19]; first compound 1.265 µM): 0.247 | relative viability ([19]; first compound 4 µM): 0.173 | relative viability ([20]; first compound 0.04 µM): 0.849 | relative viability ([20]; first compound 0.1265 µM): 1.12 | relative viability ([20]; first compound 0.4 µM): 0.65 | relative viability ([20]; first compound 1.265 µM): 0.321 | relative viability ([20]; first compound 4 µM): 0.218 | relative viability ([21]; first compound 0.04 µM): 0.701 | relative viability ([21]; first compound 0.1265 µM): 0.759 | relative viability ([21]; first compound 0.4 µM): 0.721 | relative viability ([21]; first compound 1.265 µM): 0.543 | relative viability ([21]; first compound 4 µM): 0.577 | relative viability ([22]; first compound 0.04 µM): 0.637 | relative viability ([22]; first compound 0.1265 µM): 0.54 | relative viability ([22]; first compound 0.4 µM): 0.506 | relative viability ([22]; first compound 1.265 µM): 0.345 | relative viability ([22]; first compound 4 µM): 0.308 | relative viability ([23]; first compound 0.04 µM): 0.624 | relative viability ([23]; first compound 0.1265 µM): 0.609 | relative viability ([23]; first compound 0.4 µM): 0.359 | relative viability ([23]; first compound 1.265 µM): 0.306 | relative viability ([23]; first compound 4 µM): 0.375 | relative viability ([24]; first compound 0.04 µM): 0.505 | relative viability ([24]; first compound 0.1265 µM): 0.646 | relative viability ([24]; first compound 0.4 µM): 0.6 | relative viability ([24]; first compound 1.265 µM): 0.57 | relative viability ([24]; first compound 4 µM): 0.381
